Measured values: PubChem BioAssay AID2060510 (Molecular Pharmacology Branch, DTP, NCI, 2025)

System: 439559-082-T-J2-PDC spheroids viability
Experiment: Anticancer human tumor 439559-082-T-J2-PDC patient-derived colon adenocarcinoma cell line growth inhibition [GQUAD]
Details: for IC50: curve of first compound; for viability, T/C: stronger effect = lower value
Source text: DNA G-quadruplex Stabilizer Agents in Combinations in Complex Spheroids
A high-throughput screen of multi-cell type tumor spheroids was designed to identify active combinations of DNA G-quadruplex stabilizer agents and targeted small molecules. Complex spheroids include a stromal component modeled by human endothelial cells (HUVEC) and fibroblasts modeled by human mesenchymal stem cells (MSCs). The concentration ranges selected for each drug and investigational agent were based upon clinically achievable concentrations if the clinical Cmax of the agent was known.
Compounds. The drugs and investigational agents: pidnarulex (CX-5461; NSC782164), APTO-253 (NSC789042), BRACO-19 (NSC847499), peposertib (NSC802822), ceralasertib (NSC780249), elimusertib (NSC800525), camonsertib (NSC841442), AZD-1390 (NSC803789), olaparib (NSC753686), talazoparib (NSC767125), ART-558 (NSC835418), sotorasib (NSC818433), MRTX-1133 (NSC836407), SN-38 (NSC673596), topotecan (NSC609699), etoposide (NSC141540), doxorubicin (NSC123127), gemcitabine (NSC613327), 5-fluorouracil (NSC19893), paclitaxel (NSC125973), vemurafenib (NSC761431), panobinostat (NSC761190), R-306465 (JNJ-16241199; NSC773264), adavosertib (NSC754352), TP-3654 (NSC805149), carboplatin (NSC241240), KSQ-4279 (NSC840948), and staurosporine (NSC755774) were obtained from the National Cancer Institute (NCI) Developmental Therapeutics Program Chemical Repository (34). The FDA-approved anticancer drug set is available from the NCI Developmental Therapeutics Program. […] The stock solutions were prepared in dimethyl sulfoxide (DMSO, Sigma-Aldrich, St. Louis, MO, cat. D2650) at 800-fold the tested concentration and stored at -70 degrees C prior to their use. All drugs and investigational agents were tested over a range starting from a high concentration at or near the clinical Cmax and decreasing in half-log increments. If the clinical Cmax for an agent had not been determined, the highest concentration tested was 10 microM.
2.3 Cell Culture. All cells were maintained in an incubator at 37 degrees C and 5% CO2 with 95% humidity. The PDC lines were cultured according to standard operating procedures established by the NCI PDMR. All PDCs were thawed and cultured in Matrigel-coated flasks prepared with a working solution of 1X Ham's F-12 nutrient mix, without supplementation (Invitrogen, cat. 11765054), 100 U/mL penicillin-streptomycin (Invitrogen, cat. 15140122), and 2.5% Matrigel (Corning Inc., cat. 354248) for the first three passages. The 857933-349-R-J2-PDC line was cultured in 6C/Colon 1B media, which includes advanced DMEM/F-12 (Thermo Fisher Scientific, cat. 12634028), 10 mM HEPES (Thermo Fisher Scientific, cat. 15630080), 1X GlutaMAX supplement (Thermo Fisher Scientific, cat. 35050061), 0.1 mg/mL primocin (InvivoGen, cat. ant-pm-2), 10% defined fetal bovine serum, heat inactivated (HyClone Laboratories Inc., cat. SH30070.03HI), 50% L-WRN conditioned media (ATCC, cat. CRL-3276), 1.25 mM N-Acetyl-L-cysteine (Sigma-Aldrich, cat. A9165), 10 mM nicotinamide (Sigma-Aldrich, cat. N0636), 1X B-27 supplement (Thermo Fisher Scientific, cat. 17504044), 1X N-2 supplement (Thermo Fisher Scientific, cat. 17502048), 10 microM Y-27632 dihydrochloride (Tocris Bioscience, cat. 1254), and 50 ng/mL human EGF recombinant protein (Thermo Fisher Scientific, cat. PHG0311). The 485176-168-R4-J1-PDC line was cultured in Panc media, which includes all 6C/Colon 1B media components plus 100 ng/mL human FGF-10 (Thermo Fisher Scientific, cat. 100-26), 500 nM SB-431542 (Selleckchem, cat. S1067), and gastrin (Tocris, cat. 3006).
[…]

[1] = second compound 0.0316 µM, first compound 0.0316 µM
[2] = second compound 0.0316 µM, first compound 0.316 µM
[3] = second compound 0.1 µM, first compound 0.0316 µM
[4] = second compound 0.1 µM, first compound 0.316 µM
[5] = second compound 0.316 µM, first compound 0.0316 µM
[6] = second compound 0.316 µM, first compound 0.316 µM
[7] = second compound 1 µM, first compound 0.0316 µM
[8] = second compound 1 µM, first compound 0.316 µM
[9] = second compound 3.16 µM, first compound 0.0316 µM
[10] = second compound 3.16 µM, first compound 0.316 µM
[11] = second compound 10 µM, first compound 0.0316 µM
[12] = second compound 10 µM, first compound 0.316 µM
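Note: spheroids exposed to the agents for 7 days before readout.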
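Throughout, for viability, T/C: percent of luminescence signal in DMSO vehicle wells taken as 100% viability.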

## CC(=O)O[C@H]1C(=O)[C@@]2(C)[C@H]([C@H](OC(=O)c3ccccc3)[C@]3(O)C[C@H](OC(=O)[C@H](O)[C@@H](NC(=O)c4ccccc4)c4ccccc4)C(C)=C1C3(C)C)[C@]1(OC(C)=O)CO[C@@H]1C[C@@H]2O + Cc1cnc(CNC(=O)c2c(=O)c3ccc(N4CCCN(C)CC4)nc3n3c2sc2ccccc23)cn1
Second compound 0.0316 µM
  IC50: 2.82 µM
Second compound 0.1 µM
  IC50: 3.41 µM
Second compound 0.316 µM
  IC50: 3.38 µM
Second compound 1 µM
  IC50: 3.3 µM
Second compound 3.16 µM
  IC50: 5.1 µM
Second compound 10 µM
  IC50: 4.09 µM
[1]
  viability, T/C: 89.9%
Second compound 0.0316 µM, first compound 0.1 µM
  viability, T/C: 89.1%
[2]
  viability, T/C: 81.3%
Second compound 0.0316 µM, first compound 1 µM
  viability, T/C: 74.2%
Second compound 0.0316 µM, first compound 3.16 µM
  viability, T/C: 46.1%
Second compound 0.0316 µM, first compound 10 µM
  viability, T/C: 39.6%
[3]
  viability, T/C: 97.5%
Second compound 0.1 µM, first compound 0.1 µM
  viability, T/C: 88%
[4]
  viability, T/C: 70.7%
Second compound 0.1 µM, first compound 1 µM
  viability, T/C: 70%
Second compound 0.1 µM, first compound 3.16 µM
  viability, T/C: 46%
Second compound 0.1 µM, first compound 10 µM
  viability, T/C: 40.5%
[5]
  viability, T/C: 90.3%
Second compound 0.316 µM, first compound 0.1 µM
  viability, T/C: 81.2%
[6]
  viability, T/C: 78.2%
Second compound 0.316 µM, first compound 1 µM
  viability, T/C: 65.8%
Second compound 0.316 µM, first compound 3.16 µM
  viability, T/C: 49.3%
Second compound 0.316 µM, first compound 10 µM
  viability, T/C: 39.2%
[7]
  viability, T/C: 74.7%
Second compound 1 µM, first compound 0.1 µM
  viability, T/C: 72.8%
[8]
  viability, T/C: 76.6%
Second compound 1 µM, first compound 1 µM
  viability, T/C: 61.8%
Second compound 1 µM, first compound 3.16 µM
  viability, T/C: 51.8%
Second compound 1 µM, first compound 10 µM
  viability, T/C: 42.9%
[9]
  viability, T/C: 62.2%
Second compound 3.16 µM, first compound 0.1 µM
  viability, T/C: 73.1%
[10]
  viability, T/C: 72.5%
Second compound 3.16 µM, first compound 1 µM
  viability, T/C: 58.9%
Second compound 3.16 µM, first compound 3.16 µM
  viability, T/C: 54.7%
Second compound 3.16 µM, first compound 10 µM
  viability, T/C: 42.4%
[11]
  viability, T/C: 64.8%
Second compound 10 µM, first compound 0.1 µM
  viability, T/C: 57.1%
[12]
  viability, T/C: 61.1%
Second compound 10 µM, first compound 1 µM
  viability, T/C: 56%
Second compound 10 µM, first compound 3.16 µM
  viability, T/C: 55.3%
Second compound 10 µM, first compound 10 µM
  viability, T/C: 36.6%

## Cn1ncnc1[C@H]1c2n[nH]c(=O)c3cc(F)cc(c23)N[C@@H]1c1ccc(F)cc1 + Cc1cnc(CNC(=O)c2c(=O)c3ccc(N4CCCN(C)CC4)nc3n3c2sc2ccccc23)cn1
Second compound 0.0316 µM
  IC50: > 0.316 µM
Second compound 0.1 µM
  IC50: > 0.316 µM
Second compound 0.316 µM
  IC50: > 0.316 µM
Second compound 1 µM
  IC50: > 0.316 µM
Second compound 3.16 µM
  IC50: > 0.316 µM
Second compound 10 µM
  IC50: > 0.316 µM
Second compound 0.0316 µM, first compound 0.000999 µM
  viability, T/C: 96.2%
Second compound 0.0316 µM, first compound 0.00316 µM
  viability, T/C: 92%
Second compound 0.0316 µM, first compound 0.00999 µM
  viability, T/C: 102%
[1]
  viability, T/C: 99.7%
Second compound 0.0316 µM, first compound 0.0999 µM
  viability, T/C: 103%
[2]
  viability, T/C: 94.8%
Second compound 0.1 µM, first compound 0.000999 µM
  viability, T/C: 109%
Second compound 0.1 µM, first compound 0.00316 µM
  viability, T/C: 84.8%
Second compound 0.1 µM, first compound 0.00999 µM
  viability, T/C: 95.8%
[3]
  viability, T/C: 88%
Second compound 0.1 µM, first compound 0.0999 µM
  viability, T/C: 87.3%
[4]
  viability, T/C: 79.6%
Second compound 0.316 µM, first compound 0.000999 µM
  viability, T/C: 93.8%
Second compound 0.316 µM, first compound 0.00316 µM
  viability, T/C: 85.5%
Second compound 0.316 µM, first compound 0.00999 µM
  viability, T/C: 93%
[5]
  viability, T/C: 82.6%
Second compound 0.316 µM, first compound 0.0999 µM
  viability, T/C: 88.6%
[6]
  viability, T/C: 74.4%
Second compound 1 µM, first compound 0.000999 µM
  viability, T/C: 72.2%
Second compound 1 µM, first compound 0.00316 µM
  viability, T/C: 81.5%
Second compound 1 µM, first compound 0.00999 µM
  viability, T/C: 74.3%
[7]
  viability, T/C: 76%
Second compound 1 µM, first compound 0.0999 µM
  viability, T/C: 81.6%
[8]
  viability, T/C: 64.8%
Second compound 3.16 µM, first compound 0.000999 µM
  viability, T/C: 72.1%
Second compound 3.16 µM, first compound 0.00316 µM
  viability, T/C: 70.8%
Second compound 3.16 µM, first compound 0.00999 µM
  viability, T/C: 76.5%
[9]
  viability, T/C: 71%
Second compound 3.16 µM, first compound 0.0999 µM
  viability, T/C: 73.8%
[10]
  viability, T/C: 67.8%
Second compound 10 µM, first compound 0.000999 µM
  viability, T/C: 65%
Second compound 10 µM, first compound 0.00316 µM
  viability, T/C: 65%
Second compound 10 µM, first compound 0.00999 µM
  viability, T/C: 67.4%
[11]
  viability, T/C: 63.5%
Second compound 10 µM, first compound 0.0999 µM
  viability, T/C: 70.9%
[12]
  viability, T/C: 63.9%
